In brackets after ≈: the same amount, converted by molar mass. Like-named read-outs stand apart in the source and are kept apart here.

A short description of data set [1]: in vivo. The note with it: Artemia salina (brine shrimp), in vivo. How it is done: (§1) The brine shrimp lethality bioassay on Artemia salina was performed to predict the toxicity of the compounds. The test was conducted using 24-well plate as described previously according to standard protocols (Solis et al. [1993]; Meyer et al. [1982]). The wells containing FSW-DMSO (v/v 1:1000) served as the negative controls. Adriamycin was used as a positive control. There were three replicate wells per concentration, and each bioassay experiment had three replicates using three different batches of brine shrimp.

The subject of data set [2] is cyprids of barnacle B. amphitrite. Put plainly: Anti-larval settlement bioassay (antifouling activity and larval toxicity). Format: in vivo. The conditions noted are these: for LC50/EC50 ratio (therapeutic ratio): B. amphitrite cyprids, ratio >15 considered non-toxic; for EC50: read-out: EC50 (larval settlement inhibition). How it is done: (§2) The newly released nauplii were screened with the aperture of 90 μm. The newly released nauplii were raised in filtered seawater (FSW) at 28 °C with mild aeration and fed with Chaetoceros gracilis Schutt at 1 × 10^6 cells ml^−1. The nauplius larvae transformed into cyprids (ready to attach and metamorphose) after 3.5 days. Newly transformed cyprids were kept in filtered seawater at 4 °C overnight before being used in the anti-larval settlement bioassay.
(§3) The antifouling activity was evaluated as larval settlement inhibition against the cyprids of barnacle B. amphitrite using 24-well polystyrene plates (Nunc, Naperville, CA, USA). Each compound was dissolved in a stock solution of DMSO with the concentration of 50 mg ml^−1, and then diluted 1000 times with FSW to 50 μg ml^−1. The compound was further transferred into FSW to make up the following test solution with the concentrations ranging from 25 to 0.50 μg ml^−1. One millilitre of the test solution and 16–20 larvae were allocated to each well of the 24-well plate. Each concentration had three replicate wells. The plates were cultivated in darkness for 48 h at 28 °C. The effects of the test compounds against the larvae settlement were determined by examining the plates under a dissecting microscope to check for (1) settled larvae (attached and metamorphosed), (2) swimming larvae, as well as (3) any possible toxic effects of the treatments (dead and paralyzed). The number of the settled larvae was expressed as a percentage of the total number of larvae per well. Each compound was tested by triplicate experiments using three different batches of larvae.
(§4) The EC50 and LC50 values of each compound were calculated according to the records of anti-larval settlement experiments. […] Then a concentration–response curve was plotted and a tread line was set up.

The test system is the same in data set [3]. Also noted: method as in Jacobson and Willingham [2000]. The note with it: concentration used for positive control; ref Jacobson and Willingham [2000]; cited from earlier work.
Data set [4] is described as follows: Anti-larval settlement bioassay (antifouling activity and larval toxicity). Format: in vivo. The note with it: Balanus (Amphibalanus) amphitrite (barnacle cyprid larvae), in vivo, cyprids of B. amphitrite, 48 h at 28 °C, concentration where 50% of larvae were dead; for LC50 at 48 h: other: larvae immersed in test solution. The procedure:
as §2, §3, §4

Data set [5] has as its system brine shrimps Artemia salina. Put plainly: in vivo. The note with it: read-out: LC50 (brine shrimp lethality); Artemia salina. The procedure:
as §1

Setting [6] is: cyprids of B. amphitrite, 48 h at 28 °C, concentration where 50% of larvae were inhibited to settle vs negative control.
Setting [7] is: Amphibalanus amphitrite, 48 h, cyprids of B. amphitrite, 48 h at 28 °C, concentration where 50% of larvae were inhibited to settle vs negative control.
Where [8] appears, read: LC50 (brine shrimp lethality), Artemia salina.
Setting [9] is: Amphibalanus amphitrite, cyprids of B. amphitrite, 48 h at 28 °C, concentration where 50% of larvae were inhibited to settle vs negative control.

With `COc1cccc2c1C(=O)c1c(O)c3c(c(O)c1C2=O)C[C@@](O)(C(=O)CO)C[C@@H]3O[C@H]1C[C@H](N)[C@H](O)[C@H](C)O1` [Adriamycin, reference compound], the LC50 (usually the concentration lethal to half of the exposed cells or organisms) in data set [1] turned out to be 12 µM.
Take `CCCCCCCCn1sc(Cl)c(Cl)c1=O` [Sea-Nine 211™, reference compound]: in data set [2], the “LC50/EC50 ratio (therapeutic ratio)” value was found to be 20.3. In data set [2] (cyprids of B. amphitrite, 48 h at 28 °C, concentration where 50% of larvae were dead), the LC50 was 88.7 µM. Besides, in data set [2] (setting [6]), the EC50 (as a rule, the concentration that produces a half-maximal response) amounted to 4.36 µM. Further, the “EC50 value against B. amphitrite” value in data set [3] was 1.23 µg/mL (≈ 4.36 µM).
As to `Cc1cc(O)cc(Oc2cc(C)cc(O)c2)c1` [compound 1, Diorcinol], in data set [4], the LC50 at 48 h is greater than 217 µM. In addition, the EC50 in data set [2] (setting [7]) was 32.6 µM. Further, the “LC50/EC50 ratio (therapeutic ratio)” value in data set [2] is given as greater than 6.67. For the same compound, in data set [1] (setting [8]), the LC50 turned out to be 126 µM.
On the same counts, the results for `Cc1cc(O)cc(Oc2cc(C)cc(O)c2O)c1` [compound 2, Cordyol C] are greater than 203 µM, 57.3 µM, greater than 3.54 and 126 µM.
`COC(=O)c1c(C)cc(Oc2cc(C)cc(O)c2)cc1O` [compound 3, 4-Methoxyacyl-diorcinol] had an LC50 at 48 h in data set [4] greater than 174 µM. The figures for the EC50 in data set [2] (setting [7]) and in data set [2] (setting [6]) were less than 10 µM and 7.43 µM, respectively. The 50% lethal concentration (LC50) in data set [1] (setting [8]) is no less than 34.7 µM; in data set [5] it was 34.7 µM.
In data set [4], `COc1cc(C)cc(Oc2cc(C)cc(O)c2)c1` [compound 4, Cordyol E] gave an LC50 at 48 h greater than 205 µM. The EC50 in data set [2] (setting [7]) was found to be 31 µM. Besides, the “LC50/EC50 ratio (therapeutic ratio)” value in data set [2] is given as greater than 6.61. The same compound showed an LC50 in data set [1] (setting [8]) of 41 µM.
`COc1cc(C)cc(Oc2cc(C)cc(OC)c2O)c1O` [compound 5, 3,3′-O-dimethylviolaceol-I] returned an LC50 at 48 h in data set [4] greater than 172 µM. The half-maximal effective concentration (EC50) in data set [2] (setting [7]) stood at 18.4 µM. Moreover, in data set [2], the “LC50/EC50 ratio (therapeutic ratio)” value is greater than 9.35. In data set [1] (setting [8]), this compound gave an LC50 of 172 µM.
`COc1cc(C)cc(Oc2cc(C)cc(OC)c2OC)c1O` [compound 6, Cordyol D] gave an LC50 at 48 h in data set [4] greater than 164 µM. Further, in data set [2] (setting [7]), the EC50 was determined as 18.2 µM. Further, the “LC50/EC50 ratio (therapeutic ratio)” value in data set [2] is listed as greater than 9.01. Further, the LC50 in data set [1] (setting [8]) was determined as 164 µM.
Compound `CCCOc1cc(C)cc(Oc2cc(C)cc(O)c2)c1` [compound 7, 3-O-propyl-diorcinol] had an LC50 at 48 h in data set [4] of 112 µM. The EC50 in data set [2] (setting [7]) was less than 10 µM; in data set [2] (setting [6]) it was 9.82 µM. Moreover, the “LC50/EC50 ratio (therapeutic ratio)” value in data set [2] was 11.4.
In the case of `CCCCCOc1cc(C)cc(Oc2cc(C)cc(O)c2)c1` [compound 8, 3-O-pentyl-diorcinol], the LC50 at 48 h in data set [4] is greater than 167 µM. Besides, the EC50 in data set [2] (setting [7]) was 27.9 µM. Further, the “LC50/EC50 ratio (therapeutic ratio)” value in data set [2] is listed as greater than 5.99.
Compound `Cc1cc(O)cc(Oc2cc(C)cc(OC(=O)c3ccccc3)c2)c1` [compound 10, 3-O-benzoyl-diorcinol] showed an LC50 at 48 h in data set [4] greater than 150 µM. Further, the EC50 in data set [2] (setting [7]) was determined as 12.6 µM. Further, the “LC50/EC50 ratio (therapeutic ratio)” value in data set [2] is on record as greater than 11.9. This compound displayed an LC50 in data set [1] (setting [8]) greater than 150 µM.
In the case of `CCCCCOc1cc(C)cc(Oc2cc(C)cc(OCCCCC)c2)c1` [compound 12, 3,3′-O-dipentyl-diorcinol], the median lethal concentration (LC50) at 48 h in data set [4] was greater than 135 µM. The concentration for a half-maximal effect (EC50) in data set [2] (setting [7]) turned out to be 12.2 µM. Moreover, the “LC50/EC50 ratio (therapeutic ratio)” value in data set [2] is reported as greater than 11.1.
Turning to `Cc1c(Br)c(O)c(Br)c(Oc2c(Br)c(C)c(Br)c(O)c2Br)c1Br` [compound 13, 2,4,6,2′,4′,6′-Hexabromo-diorcinol], the LC50 in data set [4] stood at 22 µM; in data set [1], 35.6 µM. In addition, the EC50 in data set [2] (setting [9]) was 0.71 µM.
On the same counts, the results for `COC(=O)c1c(C)c(Br)c(Oc2c(Br)c(C)c(Br)c(O)c2Br)c(Br)c1O` [compound 14, 2,6,2′,4′,6′-Pentabromo-4-methoxycarbonyl-diorcinol] are 29.3 µM, greater than 73.3 µM and 1.17 µM.
As to `Cc1cc(O)cc(Oc2cc(C)cc(OC(=O)c3ccc(Br)cc3)c2)c1` [compound 15, 3-O-p-Bromobenzoyl-diorcinol], in data set [4], the LC50 at 48 h stood at 60.5 µM. In addition, the EC50 in data set [2] (setting [7]) was determined as 2.42 µM. In data set [1] (setting [8]), this compound gave a 50% lethal concentration (LC50) greater than 121 µM.
Take `Cc1cc(C=O)c2c(C)ccc(C(C)C)cc1-2` [compound 16, 1-Formylguaiazulene]: the LC50 at 48 h in data set [4] was 221 µM. For the same compound, the 50% effective concentration (EC50) in data set [2] (setting [7]) turned out to be 42 µM.
For `Cc1cc(C=O)c2c(C)cc3c(cc1-2)[C@@H](C)CO3` [compound 18, Ochracenoid A] the same measures were 208 µM and 83.3 µM.
For `CC1=CC(=O)c2c(C)cc3oc(=O)c(C)c-3cc21` [compound 21, Ketolactone] the same measures were greater than 208 µM and greater than 104 µM.
In turn, `C/C(=C\[C@H](O)C[C@@H](C)CCCc1ccoc1)CCCc1ccoc1` [compound 22, Furospongin-1] yielded an LC50 at 48 h in data set [4] of 153 µM. The EC50 in data set [2] (setting [7]) was determined as 6.05 µM; in data set [2] (setting [6]), 6.06 µM. The “LC50/EC50 ratio (therapeutic ratio)” value in data set [2] was determined as 25.2. For the same compound, the “inhibition of larval settlement in preliminary screening” value in data set [2] (B. amphitrite, at 25.0 μg ml^−1) is reported as “completely inhibited”.
In turn, `C=CC(C)(C)c1[nH]c2c(CC=C(C)C)cc(CC=C(C)C)cc2c1C[C@@H]1NC(=O)[C@H](C)NC1=O` [compound 44, Echinulin] came in with an LC50 in data set [4] greater than 108 µM. Moreover, the concentration giving a half-maximal response (EC50) in data set [2] (Amphibalanus amphitrite, 48 h) was greater than 54.2 µM.
Take `CO[C@H]1[C@@H](O)CC/C(C)=C/[C@H]2C=C(C)[C@@H](C)[C@H]3[C@H](CC(C)C)NC(=O)[C@]32C(=O)C[C@@H]1O` [compound 46, Aspochalasin K]: the LC50 in data set [4] is greater than 115 µM. Moreover, in data set [2] (setting [9]), the concentration giving a half-maximal response (EC50) was 17.3 µM. In addition, the “LC50/EC50 ratio (therapeutic ratio)” value in data set [2] is on record as greater than 6.65.
For `CC1=C[C@@H]2/C=C(\C)CC[C@H](O)[C@H](O)[C@@H](O)CC(=O)[C@]23C(=O)N[C@@H](CC(C)C)[C@@H]3[C@@H]1C` [compound 47, Aspochalasin E] the same measures were greater than 119 µM, 32.2 µM and greater than 3.70.

The record behind these values is PMC5081312, “Antifouling phenyl ethers and other compounds from the invertebrates and their symbiotic fungi collected from the South China Sea” (AMB Express, 2016).
